From patent US6395729B1, “Use of pyridazino[4,5-b]indole-1-acetamide derivatives for preparing medicines for treating diseases related to the dysfunction of peripheral benzodiazepin receptors” (Sanofi-Synthelabo, priority 1999, dated 2002)

How the values were obtained:
[1] = system: hearts isolated from rabbits; assay: Cardioprotective effects on isolated rabbit hearts subjected to regional ischaemia and reinfusion; set-up: left ventricular pressure, percentage of preischaemic recovery / contracture during reinfusion / maximum and minimum dP/dt values and double frequency-pressure product: dose or concentration left out as unconfirmed
Experimental: Study of the Cardioprotective Effects
The cardioprotective effects were studied on hearts isolated from rabbits subjected to a regional ischaemia and to a reinfusion. The size of infarction as well as the recovery of the contractile function upon reinfusion were measured.
New Zealand rabbits (2.3 to 2.5 kg, ESD France) are anaesthetized with a ketamine-xylasine mixture and heparinized. The heart is removed and rapidly infused by the retrograde aortic route at a pressure of 75 mmHg with a Krebs Henselheit-type solution. A balloon is introduced into the left ventricle and a telediastolic pressure of 5 mmHg is applied. After a stabilizing period of 20 min, the compound to be studied (1 mM) or the vehicle is added to the infusion solution 15 min before the ischaemia and during the entire duration of the experiment. The regional ischaemia is created by complete ligation of the left coronary artery for 30 min, the heart then being reinfused for 2 h.
The ventricular pressure, heart rate and coronary output parameters are monitored during the whole experiment.
After the reinfusion, the coronary artery is again occluded and China ink is infused in order to delimit the area at risk. Transverse sections are then prepared and incubated in a 1% triphenyltetrazolium solution so as to measure the size of the infarction. The quantification of the necrosed area, expressed as % of the area at risk, is obtained by means of image-analysing software.

[2] = system: motoneurons of the facial nucleus; assay: Survival of the motoneurons after cutting of the facial nerve in 4-day-old rats; assay type: in vivo, rat; conditions: 7 d treatment, i.p. route
Experimental: Test of Survival of the Motoneurons After Cutting of the Facial Nerve in 4-day-old Rats
After lesioning of the facial nerve in immature rats, the motoneurons of the facial nucleus undergo neuronal death by apoptosis. The evaluation of neuronal survival is carried out using histological and neuronal counting methods.
4-Day-old immature rats are anaesthetized with pentobarbital (3 mg/kg by the i.p. route). The right facial nerve is exposed and cut, where it leaves the stylomastoid foramen. After regaining consciousness, the young rats are returned to their mothers and treated, for 7 d, by one or two daily administrations, by the oral or intraperitoneal route, at doses ranging from 1 to 10 mg/kg. 7 d after the lesioning, the animals are decapitated and the brains frozen in isopentane at −40° C. The facial nucleus is cut using a cryostat, into 10 μm sections, in its entirety. The motoneurons are stained with cresyl violet and counted with the aid of the Histo™ software (Biocom™).

[3] = system: kidneys (renal ischaemia-reinfusion); assay: Renoprotective effects, renal artery occlusion-reinfusion in rats; assay type: in vivo, rat; conditions: 3 mg/kg i.p. 60 min before the occlusion
Experimental: Study of the Renoprotective Effects
The experiment is carried out on Sprague-Dawley male rats (Charles River France) of 270 to 330 g. The animals are anaesthetized with pentobarbital (60 mg/kg i.p.), intubated and artificially ventilated, their temperature is maintained between 37 and 38° C.
A 3 cm laparotomy is performed on the animal in dorsal decubitus, the right and left renal arteries are exposed and occluded for 30 min, and then the kidneys are reinfused under visual monitoring and the incision is closed. The serum creatinine and urea nitrogen levels are determined from blood samples collected in the orbital sinus, at D0 (before anaesthesia), and then at D1, D2, D3, D4, D8 (after 1 occlusion-reinfusion).
The compound to be studied, or its vehicle (Tween 80 at 2%) is administered at the dose of 3 mg/kg by the i.p. route 60 min before the occlusion.

## CN(C)C(=O)Cc1nn(-c2ccccc2)c(=O)c2c1c1ccc(Cl)cc1n2C [Compound No. 1, 7-Chloro-N,N,5-trimethyl-4-oxo-3-phenyl-3,5-dihydro-4H-pyridazino[4,5-b]indole-1-acetamide]
[1]
  contracture during reinfusion: reduces the contracture
[1]; after 2 h of reinfusion
  left ventricular pressure, percentage of preischaemic recovery: 65%
[1]; compound 1 mM in infusion solution, 30 min ischaemia, 2 h reinfusion
  size of the infarction (necrosed area, expressed as % of the area at risk): 22±3.3 % of the area at risk
[1]; compound 1 mM in infusion solution, 30 min ischaemia, 2 h reinfusion, vs controls, p<0.01
  reduction in the size of the infarction: 47%
[1]; during reinfusion
  maximum and minimum dP/dt values and double frequency-pressure product: significantly restores
[2]
  increase in neuronal survival: 31%
[3]; at D3
  reduction of creatininaemia compared with the vehicle: 56%
  reduction of uraemia compared with the vehicle: 49%
[3]; dead/total animals
  mortality in the animals: 1/12
